Assays:
[1] = system: L. mexicana promastigotes; experiment: Metabolic inhibition of Leishmania mexicana promastigotes, fluorometric analysis with resazurin; assay type: cell-based; conditions: for IC50: Leishmania mexicana, 48 h, read-out: L. mexicana Promastigotes IC50, promastigotes, 24 h + 24 h resazurin, 27 °C, confidence interval (Probit) in parentheses, triplicate; for activity on L. mexicana (in words): promastigotes, in vitro; for SI (CC50/IC50) L. mexicana: CC50 macrophages J774 / IC50 L. mexicana promastigotes
Description: A promastigote culture of L. mexicana was harvested in the stationary phase after 7 days of growth in culture. To each well of a sterile 96-well microplate, 5 × 10^5 promastigotes and the compound to be assessed (or the reference drug) were added to a final volume of 100 μL in RPMI culture medium supplemented with 10% SFB and 1% ampicillin/streptomycin. Each compound was examined at different concentrations, obtained by serial two-fold dilutions starting from 50 μg/mL. […] Promastigotes with 0.5% DMSO (at the vehicle concentration of the greatest dilution of the compound) served as the positive viability control and amphotericin B at a final concentration of 5 μg/mL served as the negative viability control. Each condition was assayed in triplicate.
After 24 h of incubation, 10 μL of 0.01% resazurin was added to each of the wells and incubation continued for another 24 h under the same conditions. The plate was read via a fluorometer (Spectramax M3, Molecular Devices, LLC, San Jose, CA, USA) at 544 nm excitation and 590 nm emission. Each treated well was compared to the positive viability control, and metabolic inhibition was expressed as a percentage. The IC50 value was determined with the Probit statistical tool version 4.1 [31, 32, 33].
Resazurin is a blue, permeable, and non-fluorescent compound. Upon entering cells, it is reduced to resorufin due to the reducing environment of the cytosol in living cells. Resorufin is red and highly fluorescent. The number of living cells is proportional to the fluorescence intensity of resorufin [31].

[2] = system: T. cruzi INC-5 epimastigotes; experiment: Metabolic inhibition of Trypanosoma cruzi INC-5 epimastigotes, colorimetric analysis with MTT; assay type: cell-based; conditions: for IC50: Trypanosoma cruzi, 24 h, 24 h + 20 h MTT, 27 °C, confidence interval (Probit) in parentheses, triplicate; for IC50 / activity on T. cruzi (in words): epimastigotes; for activity on T. cruzi (in words): in vitro; for SI (CC50/IC50) T. cruzi: CC50 macrophages J774 / IC50 T. cruzi INC-5 epimastigotes
Description: Epimastigotes of T. cruzi INC-5 were harvested after 7 days of growth in culture. […] The microplate was incubated in the dark at 27 °C for 24 h. Epimastigotes with 0.5% DMSO served as the positive viability control and the reference drugs nifurtimox ([…], Bayer, Germany) and benznidazole (Rochagan, Roche, Brazil) served as the negative viability control. Each condition was assayed in triplicate. Upon completion of the incubation time, 10 μL of MTT solution at 5 mg/mL was added to each well, and incubation continued in the dark at 27 °C for 20 h. Then, 100 μL of a solution containing 10% SDS and 0.01 M HCl was added to stop the reaction. […] The plates were read on a spectrophotometer (Spectramax Plus, Molecular Devices) at an absorbance of 570 nm. The result found in each well with a given concentration of the respective compound was compared to the positive viability control and the metabolic inhibition was expressed as a percentage. The IC50 was determined using the Probit statistical tool. MTT is a yellow, water-soluble compound. In living cells, […] is captured and reduced to its insoluble form (formazan, which is purple) by mitochondrial succinate dehydrogenase. The quantity of living cells is proportional to the amount of formazan produced.

[3] = Cytotoxic effect on macrophages, resazurin; assay type: cell-based, murine; conditions: mouse, J774A.1 macrophages; J774A.1 murine macrophages, 20 h + 4 h resazurin; confidence interval (Probit) in parentheses; triplicate; read-out: Macrophages J774 CC50
Description: (§1) The microplate was incubated at 37 °C with 5% CO2 and humidity for 24 h to allow for the formation of a cell monolayer with a confluence of 80%. Subsequently, a concentration–response evaluation was carried out. Briefly, one of the compounds at the corresponding concentration was placed in each well with macrophages. […] As the negative cytotoxicity control, cells were exposed to 1% DMSO. The microplate was incubated at 37 °C with 5% CO2 and humidity for 20 h. Afterwards, 10 μL of 0.01% resazurin was added and the microplate was incubated for 4 h. As mentioned above, the microplate was read via a fluorometer at 544 nm excitation and 590 nm emission. Each treated well was compared to the negative cytotoxicity control and the data were expressed as a percentage of metabolic inhibition. The Probit statistical tool was used to calculate the CC50.

J774A.1 macrophages = experiment: Cytotoxic effect on macrophages, resazurin; assay type: cell-based, murine; conditions: murine macrophage cell line
Description: as §1

SMILES | IC50 [1] [µg/mL] | activity on L. mexicana (in words) [1] | IC50 [2] [µg/mL] | activity on T. cruzi (in words) [2] | melting point [°C] | SI (CC50/IC50) L. mexicana [1] | CC50 [3] [µg/mL] | SI (CC50/IC50) T. cruzi [2] | cytotoxic effect on macrophages (in words) (J774A.1 macrophages)
CCCCCCOc1ccc([C@@H](O)[C@@H](O)c2ccc(OCCCCCC)cc2)cc1 [compound 37, (1R,2S)-1,2-bis(4-hexyloxyphenyl)ethane-1,2-diol] | > 50 | inactivity | > 50 | inactivity | 122 to 123 |  |  |  | 
CCCOc1ccc(C2=NCCN2)cc1 [compound 24, 2-(4-Propyloxyphenyl)-4,5-dihydro-1H-imidazole] |  |  |  |  | 121 to 122 |  |  |  | 
CCCCCCCCOc1ccc(C2=NCCN2)cc1 [compound 30] |  | active | < 1 | active | 102 to 104 | 48.11 | 9.72 |  | 
CCCCCCCCCOc1ccc(C2=NCCN2)cc1 [compound 31] | < 1 |  | 21 |  | 103 to 105 | 92.56 | 50.6 | 2.40 | 
CCCCCCOc1ccc(-c2ncc[nH]2)cc1 [compound 33, 8-Hexyloxyphenyl-2-imidazole] | 3.4 | active | < 10 | active | 133 to 135 | 25.21 | 85.7 |  | 
C[C@@H]1[C@H](O)[C@@H](C)/C=C/C=C/C=C/C=C/C=C/C=C/C=C/[C@H](O[C@@H]2O[C@H](C)[C@@H](O)[C@H](N)[C@@H]2O)C[C@@H]2O[C@](O)(C[C@@H](O)C[C@@H](O)[C@H](O)CC[C@@H](O)C[C@@H](O)CC(=O)O[C@H]1C)C[C@H](O)[C@H]2C(=O)O [AmB, amphotericin, reference compound] | 0.19 |  |  |  |  | 253.26 | 48.1 |  | 
CCCCOc1ccc(C2=NCCN2)cc1 [compound 26, 2-(4-Butyloxyphenyl)-4,5-dihydro-1H-imidazole] | 2.63 |  | 48.7 |  | 122 to 123 | >37.98 | > 100 |  | 
COc1ccc(C2=NCCN2)cc1 [compound 22, 2-(4-Methoxyphenyl)-4,5-dihydro-1H-imidazole] | 16 |  | > 50 | inactive |  | >6.23 | > 100 |  | least cytotoxic effect
CCCCCCCCCOc1ccc(-c2ncc[nH]2)cc1 [compound 36, 8-Nonyloxyphenyl-2-imidazole] | 1.09 | active | < 1 | active |  | 28.53 | 31.3 |  | 
O=C(Cn1ccnc1[N+](=O)[O-])NCc1ccccc1 [Bnz, benznidazole, reference compound] |  |  | 11 |  |  |  | 91.6 | 8.31 | 
O=c1[nH]c2ccccc2nc1CBr [compound 38, 3-(Bromomethyl)quinoxalin-2(1H)-one] | > 50 | no effect was detected | > 50 | no effect was detected | 224 to 226 |  |  |  | 
CCCCCCCOc1ccc(C2=NCCN2)cc1 [compound 29, 8-Hepthyloxyphenyl-2-imidazoline] |  |  |  |  | 100 to 102 | 106.21 | 21.5 |  | 
CC(C)Oc1ccc(C2=NCCN2)cc1 [compound 25, 2-(4-iso-propyloxyphenyl)-4,5-dihydro-1H-imidazole] |  |  |  |  | 151 to 153 |  |  |  | 
CCCCCCOc1ccc(C2=NCCN2)cc1 [compound 28, 8-Hexyloxypheny-2-imidazoline] |  |  | 25.1 |  | 133 to 135 | 166.31 | 29.2 | 1.16 | 
CCCCCCCCOc1ccc(-c2ncc[nH]2)cc1 [compound 35, 8-Octyloxyphenyl-2-imidazole] | 2.69 | active |  | active | 117 to 119 | 14.92 | 40.2 |  | 
CCOc1ccc(C2=NCCN2)cc1 [compound 23, 2-(4-Ethoxyphenyl)-4,5-dihydro-1H-imidazole] | 7.62 |  | > 50 | inactive | 180 to 182 | >13.12 | > 100 |  | least cytotoxic effect
CCCCCOc1ccc(C2=NCCN2)cc1 [compound 27, 8-Penthyloxyphenil-2-imidazoline] | < 1 |  | 37.5 |  | 129 to 131 | 88.28 | 71.3 | 1.90 | 
CC1CS(=O)(=O)CCN1/N=C/c1ccc([N+](=O)[O-])o1 (stereo not drawn) [Nfx, nifurtimox, reference compound] |  |  | 2.5 |  |  |  | 57.8 | 23.10 | 

From publication PMC11012064, “Synthesis of Antiprotozoal 2-(4-Alkyloxyphenyl)-Imidazolines and Imidazoles and Their Evaluation on Leishmania mexicana and Trypanosoma cruzi” (International Journal of Molecular Sciences, 2024)
